The results in this text go back to PubChem BioAssay AID2060343 (Molecular Pharmacology Branch, DTP, NCI, 2025).

Several values for one entry are separate records, joined by “and”; a condition that tells them apart may be missing. Equal values may be shown once.

The subject of this assay is 138582-337-R-J1-PDC spheroids with HUVEC/MSC, viability. The experiment in a line: Anticancer human tumor 138582-337-R-J1-PDC patient-derived Merkel cell tumor cell line growth inhibition [IpAb]. The conditions noted are these: for viability, T/C: stronger effect = lower value. The text has this:
Combinatorial screen of targeted agents with ipatasertib and abemaciclib in multi-cell type tumor spheroids
A high-throughput screen of multi-cell type tumor spheroids was designed to identify active combinations of targeted small molecules and ipatasertib or abemaciclib. Complex spheroids include a stromal component modeled by human endothelial cells (HUVEC) and fibroblasts modeled by human mesenchymal stem cells (MSCs). The concentration ranges selected for each drug and investigational agent were based upon clinically achievable concentrations if the clinical Cmax of the agent was known.
Compounds. The drugs and investigational agents: ipatasertib (NSC767898), abemaciclib(NSC768073), selumetinib (NSC741078), trametinib (758246), adavosertib (NSC754352), everolimus (NSC733504), sapanisertib (NSC764658), vemurafenib (NSC761431), venetoclax (NSC766270), copanlisib (NSC809693), apelisib (NSC765974), palbociblib (NSC758247), vemurafenib (NSC761431), dabrafenib (NSC764134), ravoxertinib (NSC781343), BMS-387032 (NSC767048), sotorasib (NSC818433), talazoparib (NSC767125) and afursertib (NSC778305), were obtained from the National Cancer Institute (NCI) Developmental Therapeutics Program Chemical Repository. The FDA-approved anticancer drug set is available from the NCI Developmental Therapeutics Program. […] The stock solutions were prepared in dimethyl sulfoxide (DMSO, Sigma-Aldrich, St. Louis, MO, cat. D2650) at 800-fold the tested concentration and stored at -70 degrees C prior to their use. All drugs and investigational agents were tested over a range starting from a high concentration at or near the clinical Cmax and decreasing in half-log increments. If the clinical Cmax for an agent had not been determined, the highest concentration tested was 10 microM.
NCI60 Cell Culture. NCI60 cell lines were obtained from the NCI Developmental Therapeutics Program Tumor Repository. For each lot of cells, the Repository performed Applied Biosystems AmpFLSTR Identifiler testing with PCR amplification to confirm consistency with the published Identifier STR profile for each cell line. Cells were kept in continuous culture for no more than 20 passages. The optimal seeding densities for each of the cell lines at each time point assessed were determined prior to performing the concentration response studies. Briefly, the NCI60 human tumor lines were grown as monolayers in RPMI 1640 medium supplemented with 10% FBS and 2 mmol/L L-glutamine.
An additional 9 lines were from the NCI60 cell line panel including MDA-MB-231 breast carcinoma, MDA-MB-468 breast carcinoma, MCF7 breast carcinoma, Hs578T breast carcinoma, MALME-3M melanoma, SK-MEL-2 melanoma, SK-OV-3 ovarian carcinoma, DU-145 prostate carcinoma, PC-3 prostate carcinoma, all cell lines along with major genetic alterations are listed on Table 2. Pooled donor human umbilical vein endothelial cells (HUVEC, Lonza, cat. CC-2519) and human mesenchymal stem cells (hMSC, Lonza, cat. PT-2501) were purchased from Lonza (Walkersville, MD).
PDMR cell lines were grown in complete medium (DC medium): Dulbecco's modified Eagle's medium (DMEM)/F12 supplemented with 5% fetal bovine serum (FBS), 2 mM L-glutamine, 100 U/mL penicillin and 100 µg/ml streptomycin, 0.4 µg/ml hydrocortisone, 10 ng/ml epidermal growth factor (EGF) recombinant human protein, 24 µg/mL adenine, and 0.1 mg/mL primocin. During culture from frozen stock vials, PDMR cells were cultured in the same medium containing 10 µM Y-27632 (see Table 3). The PDCs were cultured in complete DMEM/F12 media without 10 microM Y-27632 dihydrochloride for at least two passages prior to the screen. The pooled donor HUVEC and hMSC were cultured in endothelial cell growth medium 2 (PromoCell, Heidelberg, Germany, cat. C-22011) and mesenchymal stem cell growth medium 2 (PromoCell, cat. C-28009), respectively. For all experiments, HUVEC and hMSC were used at passages </=5.
[…]
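Also: spheroids exposed to compounds for seven days.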

What is called viability, T/C is the result in the treated group divided by that in the control group, in per cent. As usually defined, the IC50 is the concentration needed to halve the response being measured. For `C=CC(=O)N1CCN(c2nc(=O)n(-c3c(C)ccnc3C(C)C)c3nc(-c4c(O)cccc4F)c(F)cc23)C(C)C1` (configuration not stated), the viability, T/C is, setting by setting: (compound 0.0316 µM) 101% and 99.3%; (compound 0.1 µM) 104% and 97%; (compound 0.316 µM) 113% and 121%; (compound 1 µM) 120% and 108%; (compound 3.16 µM) 149% and 144%; (compound 10 µM) 187% and 181%. Also, the half-maximal inhibitory concentration (IC50) (curve of compound) is above 10000 nM.

`C=CCn1c(=O)c2cnc(Nc3ccc(N4CCN(C)CC4)cc3)nc2n1-c1cccc(C(C)(C)O)n1`: the viability, T/C by setting is: (compound 0.0316 µM) 96.7% and 116%; (compound 0.1 µM) 93.5% and 103%; (compound 0.316 µM) 98.4% and 90.7%; (compound 1 µM) 102% and 89.4%; (compound 3.16 µM) 126% and 110%; (compound 10 µM) 137% and 139%. Besides, the IC50 (curve of compound) is above 10000 nM.

For `CC(=O)c1c(C)c2cnc(Nc3ccc(N4CCNCC4)cn3)nc2n(C2CCCC2)c1=O`, the viability, T/C (compound 0.000949 µM) is 95.6% and 98.8%; the viability, T/C (compound 0.003 µM) is 104% and 90.5%; the viability, T/C (compound 0.00949 µM) is 102% and 101%; the viability, T/C (compound 0.03 µM) was 93.2% and 87.6%; the viability, T/C (compound 0.0949 µM) was 94.9% and 92%; the viability, T/C (compound 0.3 µM) is 100% and 84.8%. The IC50 (curve of compound) was above 300 nM.

On to `CC(C)(C)c1cnc(CSc2cnc(NC(=O)C3CCNCC3)s2)o1`, for which the viability, T/C is 110% and 99.4% (compound 0.00949 µM); 110% and 114% (compound 0.03 µM); 45.9% and 84.2% (compound 0.0949 µM); 0.46% and 0.83% (compound 0.3 µM); 0.54% and 0.68% (compound 0.949 µM); 0.61% and 0.65% (compound 3 µM). Further, the IC50 (curve of compound) is 88.2 nM and 152 nM.

As for `CC(C)NCC(C(=O)N1CCN(c2ncnc3c2C(C)CC3O)CC1)c1ccc(Cl)cc1` (configuration not stated), the viability, T/C by setting is: (compound 0.1 µM) 92.1% [middle of 13 runs]; (compound 0.316 µM) 79.9% [middle of 13 runs]; (compound 1 µM) 64.4% [middle of 13 runs]; (compound 3.16 µM) 53.1% [middle of 13 runs]; (compound 10 µM) 42.7% [middle of 13 runs].

Take `CC(C)n1nc(-c2ccc3oc(N)nc3c2)c2c(N)ncnc21`: the viability, T/C was 97% and 95% (compound 0.000316 µM); 90.5% and 88.2% (compound 0.001 µM); 82.9% and 83.9% (compound 0.00316 µM); 70% and 77.5% (compound 0.01 µM); 59.4% and 57.2% (compound 0.0316 µM); 39.2% and 46.5% (compound 0.1 µM). Moreover, the IC50 (curve of compound) is 51.9 nM and 70.1 nM.

`CC1(C)CCC(CN2CCN(c3ccc(C(=O)NS(=O)(=O)c4ccc(NCC5CCOCC5)c([N+](=O)[O-])c4)c(Oc4cnc5[nH]ccc5c4)c3)CC2)=C(c2ccc(Cl)cc2)C1`: the viability, T/C runs as follows: (compound 0.0316 µM) 86% and 96.1%; (compound 0.1 µM) 83.1% and 79.8%; (compound 0.316 µM) 74.2% and 75.6%; (compound 1 µM) 80.1% and 87.6%; (compound 3.16 µM) 97% and 94.6%; (compound 10 µM) 78% and 68.1%. Also, for the setting “curve of compound”, the IC50 is above 10000 nM.

For the compound `CCCS(=O)(=O)Nc1ccc(F)c(C(=O)c2c[nH]c3ncc(-c4ccc(Cl)cc4)cc23)c1F`, the viability, T/C was 96.5% and 102% (compound 0.0316 µM); 89.8% and 97.6% (compound 0.1 µM); 101% and 98.8% (compound 0.316 µM); 92.3% and 99% (compound 1 µM); 115% and 116% (compound 3.16 µM); 97.3% and 81.5% (compound 10 µM). Also, for the setting “curve of compound”, the IC50 is above 10000 nM.

With `CCN1CCN(Cc2ccc(Nc3ncc(F)c(-c4cc(F)c5nc(C)n(C(C)C)c5c4)n3)nc2)CC1`, the viability, T/C is, setting by setting: (compound 0.01 µM) 96.6% [middle of 13 runs]; (compound 0.0316 µM) 90.6% [middle of 13 runs]; (compound 0.1 µM) 90.9% [middle of 13 runs]; (compound 0.316 µM) 90.5% [middle of 13 runs]; (compound 1 µM) 96.4% [middle of 13 runs]. Also, for the setting “compound alone, run of 05/18/2021”, the IC50 is above 1000 nM.

Take `COc1c(OCCCN2CCOCC2)ccc2c3n(c(=NC(=O)c4cnc(N)nc4)nc12)CCN3`: the viability, T/C (compound 0.00316 µM) is 94.9% and 84.9%; the viability, T/C (compound 0.01 µM) was 71.2% and 75.9%; the viability, T/C (compound 0.0316 µM) was 53.5% and 58.3%; the viability, T/C (compound 0.1 µM) is 36.1% and 37.8%; the viability, T/C (compound 0.316 µM) was 17.5% and 18%; the viability, T/C (compound 1 µM) is 2.36% and 3.37%. Further, the IC50 (curve of compound) was 39 nM and 51.2 nM.

As for `Cc1nc(NC(=O)N2CCCC2C(N)=O)sc1-c1ccnc(C(C)(C)C(F)(F)F)c1` (configuration not stated), the viability, T/C is 97.5% and 84.4% (compound 0.0316 µM); 80.2% and 88.7% (compound 0.1 µM); 65.3% and 69.1% (compound 0.316 µM); 59.3% and 53.7% (compound 1 µM); 52.5% and 46.1% (compound 3.16 µM); 29.6% and 18.7% (compound 10 µM). Also, the IC50 (curve of compound) is 2030 nM and 1790 nM.

Take `Cn1cnc2c(F)c(Nc3ccc(Br)cc3Cl)c(C(=O)NOCCO)cc21`: the viability, T/C reads like this: (compound 0.00949 µM) 112% and 90.1%; (compound 0.03 µM) 96.5% and 82.8%; (compound 0.0949 µM) 98.2% and 82.7%; (compound 0.3 µM) 116% and 84%; (compound 0.949 µM) 109% and 97.7%; (compound 3 µM) 146% and 106%. Further, the IC50 (curve of compound) is above 3000 nM.

As to `Cn1ncc(Cl)c1-c1cc(C(=O)NC(CN)Cc2cccc(F)c2)sc1Cl` (configuration not stated), the viability, T/C is 89.5% and 99.6% (compound 0.0316 µM); 80.9% and 77% (compound 0.1 µM); 86.6% and 67.6% (compound 0.316 µM); 72.8% and 61.9% (compound 1 µM); 66.4% and 46% (compound 3.16 µM); 0.28% and 0.56% (compound 10 µM). In addition, where the note is “curve of compound”, the IC50 is 4050 nM and 1720 nM.

With `Cn1nccc1Nc1nccc(-c2ccn(C(CO)c3ccc(Cl)c(F)c3)c(=O)c2)n1` (configuration not stated), the viability, T/C by setting is: (compound 0.0316 µM) 96.2% and 97.2%; (compound 0.1 µM) 94.1% and 93.3%; (compound 0.316 µM) 106% and 92.3%; (compound 1 µM) 109% and 104%; (compound 3.16 µM) 124% and 111%; (compound 10 µM) 132% and 127%. Further, under “curve of compound”, the IC50 is above 10000 nM.

Turning to `Cn1ncnc1[C@H]1c2n[nH]c(=O)c3cc(F)cc(c23)N[C@@H]1c1ccc(F)cc1`, the viability, T/C was 104% and 97.7% (compound 0.000316 µM); 91% (compound 0.001 µM); 92.1% and 91.5% (compound 0.00316 µM); 86.4% and 86.3% (compound 0.01 µM); 83% and 86.4% (compound 0.0316 µM); 89.5% and 79.1% (compound 0.1 µM). Also, under “curve of compound”, the IC50 is above 100 nM.
